According to patent US20250186408A1, “TREATMENT OF PHARMACORESISTANT EPILEPSY” (Katholieke Universiteit Leuven, priority 2021, published 2025):
Read-outs that look alike come from different tables or passages of the source.

Experiments:
[1] = molecular target: T1, EDNRA (Homo sapiens, UniProt P25101); assay: Calcium Flux EDNRA Agonist; assay type: cell-based; conditions: for Emax: read-out: Max response; for EC50: read-out: RC50, result type EC50
T1 sequence (P25101 21-427): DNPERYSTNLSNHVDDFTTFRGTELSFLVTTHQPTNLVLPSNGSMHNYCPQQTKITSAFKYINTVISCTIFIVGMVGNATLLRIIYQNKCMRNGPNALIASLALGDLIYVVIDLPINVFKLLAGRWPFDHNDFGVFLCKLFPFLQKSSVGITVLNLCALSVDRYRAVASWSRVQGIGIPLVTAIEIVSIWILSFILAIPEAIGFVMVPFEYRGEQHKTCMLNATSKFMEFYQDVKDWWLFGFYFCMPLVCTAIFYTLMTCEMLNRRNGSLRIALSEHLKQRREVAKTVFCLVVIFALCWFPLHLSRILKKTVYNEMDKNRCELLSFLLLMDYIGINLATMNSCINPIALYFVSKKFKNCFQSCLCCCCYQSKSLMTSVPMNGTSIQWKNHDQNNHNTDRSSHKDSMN
Protocol: (§1) (≤0.2% DMSO concentration). Assays were performed in 1× dye loading buffer consisting of 1× Dye (DiscoverX, Calcium No Wash^PLUS kit, Catalog No. 90-0091), 1× Additive A and 2.5 mM Probenecid in HBSS/20 mM HEPES. Probenecid was prepared fresh. Prior to testing, media was aspirated from cells and replaced with 25 μL dye loading buffer. Cells were incubated for 45 min at 37° C. and then 20 min at RT. For agonist determination, 25 μL of 2× compound in HBSS/20 mM HEPES was added using a FLIPR Tetra (MDS). […] 25 μL of 2× sample was added and cells were incubated for 30 min at RT in the dark to equilibrate plate temperature. After incubation, antagonist determination was initiated by addition of 25 μL of 1× compound with 3×EC80 agonist using FLIPR. For both agonist and antagonist formats, activity was measure on a FLIPR Tetra (MDS). Calcium mobilization was monitored for 2 min with a 5 sec baseline read.
(§2) FLIPR read—Area under the curve, was calculated for the entire 2 min read.

[2] = molecular target: HRH1 (Homo sapiens, UniProt P35367); assay: Calcium Flux HRH1 Agonist; assay type: cell-based; conditions: for Emax: read-out: Max response
HRH1, sequence (P35367 whole entry): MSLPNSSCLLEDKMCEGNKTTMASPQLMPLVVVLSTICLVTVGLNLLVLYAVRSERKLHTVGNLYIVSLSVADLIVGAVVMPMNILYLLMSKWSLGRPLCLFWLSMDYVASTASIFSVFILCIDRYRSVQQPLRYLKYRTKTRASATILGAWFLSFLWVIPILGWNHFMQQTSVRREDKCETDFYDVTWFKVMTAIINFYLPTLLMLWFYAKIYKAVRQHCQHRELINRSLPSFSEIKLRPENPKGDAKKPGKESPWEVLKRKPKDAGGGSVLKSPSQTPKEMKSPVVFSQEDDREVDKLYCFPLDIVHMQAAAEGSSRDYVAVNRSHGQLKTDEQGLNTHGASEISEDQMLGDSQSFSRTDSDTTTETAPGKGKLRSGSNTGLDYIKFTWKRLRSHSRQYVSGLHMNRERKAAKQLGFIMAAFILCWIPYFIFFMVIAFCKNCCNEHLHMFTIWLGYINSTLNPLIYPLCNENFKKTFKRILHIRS
Protocol: as §1, §2

[3] = molecular target: ADRB1 (Homo sapiens, UniProt P08588); assay: cAMP ADRB1 Antagonist; assay type: cell-based; conditions: for Emax: read-out: Max response
ADRB1, sequence (P08588 whole entry): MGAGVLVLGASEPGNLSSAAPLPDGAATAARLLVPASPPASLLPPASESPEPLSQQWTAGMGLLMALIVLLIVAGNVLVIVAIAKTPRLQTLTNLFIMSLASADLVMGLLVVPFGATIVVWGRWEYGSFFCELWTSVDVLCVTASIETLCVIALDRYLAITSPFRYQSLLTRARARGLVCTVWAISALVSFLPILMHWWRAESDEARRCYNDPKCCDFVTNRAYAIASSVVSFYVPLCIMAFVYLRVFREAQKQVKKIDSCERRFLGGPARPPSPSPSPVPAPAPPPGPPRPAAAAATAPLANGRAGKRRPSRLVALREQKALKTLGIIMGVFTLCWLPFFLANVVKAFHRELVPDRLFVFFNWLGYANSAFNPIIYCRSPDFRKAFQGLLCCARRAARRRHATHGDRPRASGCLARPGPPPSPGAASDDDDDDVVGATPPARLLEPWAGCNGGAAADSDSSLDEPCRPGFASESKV
Protocol: cAMP Hunter cell lines were expanded from freezer stocks. […] For Gi agonist determination, cells were incubated with sample in the presence of EC80 forskolin to induce response. For both conditions, media was aspirated from cells and replaced with 15 μL 2:1 HBSS/10 mM HEPES:cAMP XS+ Ab reagent. […] 5 μL of 4× sample was added to cells and incubated at 37° C. or room temperature (RT) for 30 or 60 min. Final assay vehicle concentration was 1%. […] Media was aspirated from cells and replaced with 10 μL 1:1 HBSS/HEPES:cAMP XS+ Ab reagent. […] For Gi coupled GPCRs, EC80 forskolin was included. […] Compound activity was analyzed using CBIS data analysis suite (ChemInnovation, CA).

[4] = molecular target: NAV1.5 (Homo sapiens, UniProt Q14524); assay: Ion Channel NAV1.5 Blocker; assay type: cell-based; conditions: for Emax at 30 min: Ion Channel NAV1.5 Blocker, read-out: Max response
NAV1.5, sequence (Q14524 whole entry): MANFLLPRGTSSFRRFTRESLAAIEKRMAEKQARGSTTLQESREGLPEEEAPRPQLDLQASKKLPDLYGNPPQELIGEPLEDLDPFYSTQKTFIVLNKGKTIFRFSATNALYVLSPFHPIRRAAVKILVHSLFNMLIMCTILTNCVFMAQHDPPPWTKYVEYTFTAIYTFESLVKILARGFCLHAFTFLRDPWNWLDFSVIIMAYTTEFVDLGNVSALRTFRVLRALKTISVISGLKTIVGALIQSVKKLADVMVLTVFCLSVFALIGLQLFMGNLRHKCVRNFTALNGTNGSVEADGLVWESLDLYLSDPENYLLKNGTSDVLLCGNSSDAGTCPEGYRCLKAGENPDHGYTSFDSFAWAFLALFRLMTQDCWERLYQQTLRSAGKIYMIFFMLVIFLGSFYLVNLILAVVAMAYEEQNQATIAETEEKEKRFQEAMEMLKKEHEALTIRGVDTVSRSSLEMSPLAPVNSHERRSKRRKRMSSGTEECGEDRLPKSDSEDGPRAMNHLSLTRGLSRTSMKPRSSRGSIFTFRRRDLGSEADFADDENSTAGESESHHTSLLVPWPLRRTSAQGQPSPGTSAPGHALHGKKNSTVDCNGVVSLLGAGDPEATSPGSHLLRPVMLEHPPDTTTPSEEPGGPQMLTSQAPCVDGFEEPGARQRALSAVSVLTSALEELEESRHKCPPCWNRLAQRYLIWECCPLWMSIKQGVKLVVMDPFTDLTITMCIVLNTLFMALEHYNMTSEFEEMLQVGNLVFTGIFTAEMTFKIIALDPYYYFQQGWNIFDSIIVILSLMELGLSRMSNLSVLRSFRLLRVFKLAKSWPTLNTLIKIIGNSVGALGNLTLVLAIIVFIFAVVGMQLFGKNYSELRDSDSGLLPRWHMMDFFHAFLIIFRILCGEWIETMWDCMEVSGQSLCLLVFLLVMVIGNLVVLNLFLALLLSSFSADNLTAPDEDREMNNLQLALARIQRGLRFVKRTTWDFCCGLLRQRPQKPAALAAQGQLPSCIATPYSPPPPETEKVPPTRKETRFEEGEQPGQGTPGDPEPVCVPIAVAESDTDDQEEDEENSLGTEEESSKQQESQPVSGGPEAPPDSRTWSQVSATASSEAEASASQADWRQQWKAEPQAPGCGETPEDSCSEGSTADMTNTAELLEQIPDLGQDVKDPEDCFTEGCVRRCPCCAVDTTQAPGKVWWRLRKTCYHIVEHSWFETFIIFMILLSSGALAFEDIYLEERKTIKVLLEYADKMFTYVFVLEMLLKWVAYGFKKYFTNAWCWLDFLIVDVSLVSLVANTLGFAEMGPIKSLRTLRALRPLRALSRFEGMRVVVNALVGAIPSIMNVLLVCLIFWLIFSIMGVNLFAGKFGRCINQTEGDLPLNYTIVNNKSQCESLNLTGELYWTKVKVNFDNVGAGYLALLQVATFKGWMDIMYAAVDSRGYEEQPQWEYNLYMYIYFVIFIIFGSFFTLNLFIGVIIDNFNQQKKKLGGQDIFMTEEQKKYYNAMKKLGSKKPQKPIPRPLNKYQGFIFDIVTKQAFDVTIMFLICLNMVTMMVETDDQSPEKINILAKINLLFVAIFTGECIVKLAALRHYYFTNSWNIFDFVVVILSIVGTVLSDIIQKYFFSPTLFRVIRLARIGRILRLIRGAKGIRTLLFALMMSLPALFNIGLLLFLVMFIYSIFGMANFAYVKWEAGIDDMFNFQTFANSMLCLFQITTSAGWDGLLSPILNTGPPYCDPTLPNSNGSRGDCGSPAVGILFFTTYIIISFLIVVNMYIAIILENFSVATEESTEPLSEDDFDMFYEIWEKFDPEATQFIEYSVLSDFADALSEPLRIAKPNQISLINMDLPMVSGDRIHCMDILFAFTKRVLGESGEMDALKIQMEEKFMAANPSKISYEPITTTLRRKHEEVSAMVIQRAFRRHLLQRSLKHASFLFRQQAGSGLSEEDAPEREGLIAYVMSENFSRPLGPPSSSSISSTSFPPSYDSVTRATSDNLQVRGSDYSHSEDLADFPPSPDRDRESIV

[5] = molecular target: T2, PDE4D2 (Homo sapiens, UniProt Q08499); assay: Enzymatic PDE4D2 Inhibitor; assay type: biochemical; conditions: for Emax: read-out: Max response; for IC50: read-out: RC50, result type IC50
T2 construct: purchased Signal Chem
T2 sequence (Q08499 303-809 limits assumed): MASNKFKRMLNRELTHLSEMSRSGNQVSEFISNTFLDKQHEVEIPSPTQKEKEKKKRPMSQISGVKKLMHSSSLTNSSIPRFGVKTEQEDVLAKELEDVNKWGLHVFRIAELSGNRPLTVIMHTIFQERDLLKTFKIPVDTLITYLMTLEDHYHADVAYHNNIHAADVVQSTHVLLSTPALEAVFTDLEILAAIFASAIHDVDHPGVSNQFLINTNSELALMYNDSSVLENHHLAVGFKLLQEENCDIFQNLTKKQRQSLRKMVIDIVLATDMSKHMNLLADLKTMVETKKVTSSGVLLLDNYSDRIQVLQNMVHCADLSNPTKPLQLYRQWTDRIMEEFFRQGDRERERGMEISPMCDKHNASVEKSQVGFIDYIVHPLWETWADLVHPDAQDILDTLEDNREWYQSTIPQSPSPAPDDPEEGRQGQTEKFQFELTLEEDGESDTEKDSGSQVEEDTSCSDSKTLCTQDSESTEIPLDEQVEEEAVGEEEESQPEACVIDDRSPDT
Protocol: Enzyme preparations were sourced from various vendors-AChE (R&D Systems), COX1 and COX2 (BPS Bioscience), MAOA (Sigma), PDE3A and PDE4D2 (Signal Chem). AChE: enzyme and test compound were pre-incubated for 15 min at RT before substrate addition. Acetylthiocholine and DTNB were added and incubated at RT for 30 min. Signal was detected by measuring absorbance at 405 nm. COX1 and COX2: enzyme stocks were diluted in assay buffer (40 mM Tris-HCl, 1×PBS, 0.5 mM Phenol, 0.01% Tween 20 and 10 nM Hematin) and allowed to equilibrate with compounds at RT for 30 min (binding incubation). Arachidonic acid (1.7 μM) and Ampliflu Red (2.5 μM) were prepared and dispended into a reaction plate. Plates were read immediately on a fluorimeter with the emission detection at 590 nm and excitation wavelength 544 nm. MAOA: enzyme and test compound were pre-incubated for 15 min at 37° C. before substrate addition. The reaction was initiated by addition of kynuramine and incubated at 37° C. for 30 min. The reaction was terminated by addition of NaOH. The amount of 4-hydroquinoline formed was determined through spectrofluorometric readout with the emission detection at 380 nm and excitation wavelength 310 nm. PDE3A and PDE4D2: enzyme and test compound were pre-incubated for 15 min at RT before substrate addition. cAMP substrate (at a concentration equal to EC80) was added and incubated at RT for 30 min. Enzyme reaction was terminated by addition of 9 mM IBMX. Signal was detected using the HitHunter® cAMP detection kit. Microplates were transferred to a PerkinElmer Envision™ instrument and read out as described for each assay. […] For enzyme activity assays, percentage inhibition was calculated using the following equation: […]

[6] = molecular target: T3, SERT (Homo sapiens, UniProt P31645); assay: Transporter SERT Blocker; assay type: cell-based; conditions: for Emax: Transporter SERT Blocker, read-out: Max response
T3 construct: Eurofins DiscoverX Corporation 87-1003DR; host or cells: unnamed cell lines
T3 sequence (P31645 whole entry): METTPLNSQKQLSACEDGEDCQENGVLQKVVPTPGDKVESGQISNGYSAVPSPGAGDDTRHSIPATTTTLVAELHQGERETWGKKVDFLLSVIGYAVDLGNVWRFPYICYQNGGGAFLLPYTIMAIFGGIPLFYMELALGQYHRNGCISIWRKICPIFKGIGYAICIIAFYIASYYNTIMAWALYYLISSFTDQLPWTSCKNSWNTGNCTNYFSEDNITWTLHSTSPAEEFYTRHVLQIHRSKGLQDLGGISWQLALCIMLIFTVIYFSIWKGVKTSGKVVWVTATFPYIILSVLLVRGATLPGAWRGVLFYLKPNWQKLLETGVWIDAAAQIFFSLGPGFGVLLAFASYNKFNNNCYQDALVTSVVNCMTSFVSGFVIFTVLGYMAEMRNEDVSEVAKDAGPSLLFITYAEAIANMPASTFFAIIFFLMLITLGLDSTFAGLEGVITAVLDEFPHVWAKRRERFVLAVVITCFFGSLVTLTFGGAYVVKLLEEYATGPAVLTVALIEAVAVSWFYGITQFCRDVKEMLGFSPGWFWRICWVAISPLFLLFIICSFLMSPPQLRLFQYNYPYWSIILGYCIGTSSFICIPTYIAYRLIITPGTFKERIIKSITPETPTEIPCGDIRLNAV
Protocol: After cell plating and incubation, media was removed an 25 μL of 1× compound in 1×HBSS/0.1% BSA was added. Compounds were incubated with cells for 30 min at 37° C. After compound incubation, 25 μL of 1× dye loading buffer (1× dye, 1×HBSS/20 mM HEPES) was added to the wells. Cells were incubated for 30-60 min at 37° C. After incubation, microplates were transferred to a PerkinElmer Envision™ instrument for fluorescent signal detection. […] For blocker mode assays, percentage of inhibition was calculated using the following formula: […]

[7] = molecular target: CNR2 (Homo sapiens, UniProt P34972); assay: cAMP CNR2 Antagonist; conditions: for Emax: read-out: Max response
Protocol: (§3) In vitro pharmacological profiling of compounds was done against 78 functional assays for 47 common off-targets (30) by Eurofins DiscoverX Corporation (Fremont, CA, USA) using their SAFETYscan E/IC50 ELECT service (Cat Ref 87-1003DR, Safety47 Panel Dose Response). […] Compounds were tested in a range of 10 concentrations, following a 3-fold serial dilution, starting from 10 μM.
cAMP Hunter cell lines were expanded from freezer stocks. Prior to testing, cells were seeded in a total volume of 20 μL into white walled 384-well microplates and incubated at 37° C. cAMP modulation was determined using the DiscoverX HitHunter cAMP XS+ assay. For Gs agonist determination, cells were incubated with sample to induce response. For Gi agonist determination, cells were incubated with sample in the presence of EC80 forskolin to induce response. For both conditions, media was aspirated from cells and replaced with 15 μL 2:1 HBSS/10 mM HEPES:cAMP XS+ Ab reagent. Intermediate dilution of sample stocks was performed to generate 4× sample in assay buffer (containing 4×EC80 forskolin in the case of antagonist determination). 5 μL of 4× sample was added to cells and incubated at 37° C. or room temperature (RT) for 30 or 60 min. Final assay vehicle concentration was 1%. For antagonist determination, cells were pre-incubated with sample followed by agonist challenge at the EC80 concentration. Media was aspirated from cells and replaced with 10 μL 1:1 HBSS/HEPES:cAMP XS+ Ab reagent. 5 μL of 4× compound was added to the cells and incubated at 37° C. or RT for 30 min. 5 μL of 4×EC80 agonist was added to the cells and incubated at 37° C. or RT for 30 or 60 min. For Gi coupled GPCRs, EC80 forskolin was included. […] Microplates were read following signal generation with a PerkinElmer Envision™ instrument for chemiluminescent signal detection. Compound activity was analyzed using CBIS data analysis suite (ChemInnovation, CA). For Gs agonist mode assays, percentage activity was calculated using the following equation:

[8] = molecular target: DRD2S (Homo sapiens, UniProt P14416); assay: cAMP DRD2S Antagonist; conditions: for Emax: read-out: Max response
DRD2S, sequence (P14416 1-414 isoform P14416-2): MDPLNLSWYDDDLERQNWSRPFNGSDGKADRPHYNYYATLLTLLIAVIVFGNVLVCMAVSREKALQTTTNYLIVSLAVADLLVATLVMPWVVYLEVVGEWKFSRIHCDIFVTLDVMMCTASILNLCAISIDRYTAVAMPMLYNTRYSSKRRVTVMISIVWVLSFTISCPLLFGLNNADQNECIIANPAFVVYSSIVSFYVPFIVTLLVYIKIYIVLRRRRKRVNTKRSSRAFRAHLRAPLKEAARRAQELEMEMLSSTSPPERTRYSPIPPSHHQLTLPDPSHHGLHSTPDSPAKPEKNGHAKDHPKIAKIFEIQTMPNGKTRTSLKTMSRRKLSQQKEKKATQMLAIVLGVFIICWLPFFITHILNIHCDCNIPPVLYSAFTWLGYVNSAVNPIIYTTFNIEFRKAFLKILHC
Protocol: as §3
(§4) cAMP Hunter cell lines were expanded from freezer stocks. Prior to testing, cells were seeded in a total volume of 20 μL into white walled 384-well microplates and incubated at 37° C. cAMP modulation was determined using the DiscoverX HitHunter cAMP XS+ assay. For Gs agonist determination, cells were incubated with sample to induce response. For Gi agonist determination, cells were incubated with sample in the presence of EC80 forskolin to induce response. For both conditions, media was aspirated from cells and replaced with 15 μL 2:1 HBSS/10 mM HEPES:cAMP XS+ Ab reagent. Intermediate dilution of sample stocks was performed to generate 4× sample in assay buffer (containing 4×EC80 forskolin in the case of antagonist determination). 5 μL of 4× sample was added to cells and incubated at 37° C. or room temperature (RT) for 30 or 60 min. Final assay vehicle concentration was 1%. For antagonist determination, cells were pre-incubated with sample followed by agonist challenge at the EC80 concentration. Media was aspirated from cells and replaced with 10 μL 1:1 HBSS/HEPES:cAMP XS+ Ab reagent. 5 μL of 4× compound was added to the cells and incubated at 37° C. or RT for 30 min. 5 μL of 4×EC80 agonist was added to the cells and incubated at 37° C. or RT for 30 or 60 min. For Gi coupled GPCRs, EC80 forskolin was included. […] Microplates were read following signal generation with a PerkinElmer Envision™ instrument for chemiluminescent signal detection. Compound activity was analyzed using CBIS data analysis suite (ChemInnovation, CA).

[9] = molecular target: OPRD1 (Homo sapiens, UniProt P41143); assay: cAMP OPRD1 Antagonist; conditions: for Emax: read-out: Max response
Protocol: as §3, §4

[10] = molecular target: HTR2A (Homo sapiens, UniProt P28223); assay: Calcium Flux HTR2A Agonist; conditions: for Emax: read-out: Max response
HTR2A, sequence (P28223 whole entry): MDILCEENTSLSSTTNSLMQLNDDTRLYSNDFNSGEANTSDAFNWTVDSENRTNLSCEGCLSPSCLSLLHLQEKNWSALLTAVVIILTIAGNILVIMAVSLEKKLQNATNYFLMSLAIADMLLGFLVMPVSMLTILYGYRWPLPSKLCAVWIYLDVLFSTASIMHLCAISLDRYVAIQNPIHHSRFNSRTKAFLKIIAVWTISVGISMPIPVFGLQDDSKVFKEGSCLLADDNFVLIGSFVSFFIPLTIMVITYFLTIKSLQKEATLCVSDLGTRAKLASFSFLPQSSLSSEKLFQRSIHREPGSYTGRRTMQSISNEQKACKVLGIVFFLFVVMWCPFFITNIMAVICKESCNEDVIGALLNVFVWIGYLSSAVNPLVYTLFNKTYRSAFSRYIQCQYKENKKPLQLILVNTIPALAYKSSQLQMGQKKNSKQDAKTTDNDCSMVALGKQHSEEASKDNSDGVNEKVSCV
Protocol: In vitro pharmacological profiling of compounds was done against 78 functional assays for 47 common off-targets (30) by Eurofins DiscoverX Corporation (Fremont, CA, USA) using their SAFETYscan E/IC50 ELECT service (Cat Ref 87-1003DR, Safety47 Panel Dose Response). […] Compounds were tested in a range of 10 concentrations, following a 3-fold serial dilution, starting from 10 μM. The assays were performed utilizing the PathHunter enzyme fragment complementation (EFC) technology, FLIPR®-based cellular screening assays, and KINOMEscan kinase binding assays.
Prior to testing, cells (10,000 cells/well) were expanded from freezer stocks and seeded into a total volume of 50 μL into black walled, clear-bottom, Poly-D-lysine coated 384-well microplates and incubated at 37° C. […] Assays were performed in 1× dye loading buffer consisting of 1× Dye (DiscoverX, Calcium No Wash^PLUS kit, Catalog No. 90-0091), 1× Additive A and 2.5 mM Probenecid in HBSS/20 mM HEPES. Probenecid was prepared fresh. Prior to testing, media was aspirated from cells and replaced with 25 μL dye loading buffer. Cells were incubated for 45 min at 37° C. and then 20 min at RT. For agonist determination, 25 μL of 2× compound in HBSS/20 mM HEPES was added using a FLIPR Tetra (MDS). For antagonist determination, cells were pre-incubated with sample followed by agonist challenge at the EC80 concentration. 25 μL of 2× sample was added and cells were incubated for 30 min at RT in the dark to equilibrate plate temperature. After incubation, antagonist determination was initiated by addition of 25 μL of 1× compound with 3×EC80 agonist using FLIPR. For both agonist and antagonist formats, activity was measure on a FLIPR Tetra (MDS). Calcium mobilization was monitored for 2 min with a 5 sec baseline read.
FLIPR read—Area under the curve, was calculated for the entire 2 min read. Compound activity was analysed using CBIS data analysis suite (ChemInnovation, CA).

Row | SMILES | EC50 ([1]; Calcium Flux EDNRA Agonist) [µM] | IC50 [4] [µM] | Emax at 30 min [4] [%] | IC50 ([5]; Enzymatic PDE4D2 Inhibitor) [µM] | IC50 [6] [µM] | Emax [6] [%] | IC50 [7] [µM] | Emax [7] [%] | IC50 [8] [µM] | Emax [8] [%] | IC50 [9] [µM] | Emax [9] [%] | EC50 [10] [µM] | Emax [10] [%] | also measured
1 | Clc1cccc(C#Cc2n[nH]c3ncccc23)c1 [Compound 10.1, 3-((3-chlorophenyl)ethynyl)-1H-pyrazolo[3,4-b]pyridine] | > 10 | > 10 | 21.5 | > 10 | > 10 | 0 | > 10 | 0 | > 10 | 0 | > 10 | 0 | > 10 | 0 | Emax ([1]; Calcium Flux EDNRA Agonist): 1.8%; Emax ([2]; Calcium Flux HRH1 Agonist): 0%; EC50 ([2]; Calcium Flux HRH1 Agonist, read-out: RC50, result type EC50): > 10 µM; Emax ([3]; cAMP ADRB1 Antagonist): 40.3%; IC50 ([3]; cAMP ADRB1 Antagonist, read-out: RC50, result type IC50): > 10 µM; Emax ([5]; Enzymatic PDE4D2 Inhibitor): 2.7%
2 | CC(C)(C)c1ccc(C#CC(O)c2ccccc2)cc1 (racemic) [Compound 3.3, rac-3-(4-(tert-butyl)phenyl)-1-phenylprop-2-yn-1-ol] | > 10 | > 10 | 59.9 | > 10 | > 10 | 0 | > 10 | 38.3 | 7.9 | 63.5 | > 10 | 5.9 | > 10 | 0 | Emax [1]: 0%; EC50 [2]: > 10 µM; Emax [2]: 0%; IC50 [3]: > 10 µM; Emax [3]: 2.2%; Emax [5]: 0%
